Experimental data published in PMC4907692, “Engineering vanilloid-sensitivity into the rat TRPV2 channel” (eLife, 2016).
Like-named read-outs stand apart in the source and are kept apart here.

Key:
[1] = target: T1, full-length GFP-tagged TRPV1 (Rattus norvegicus, UniProt O35433); test: 3H-RTx binding to intact S. cerevisiae cells expressing GFP-tagged TRPV1; settings: 37°C; for Kd: read-out: Kd of 3H-RTx binding (Hill fit)
T1 construct: Smooth function for full-length GFP-tagged TRPV1 is a fit of the Hill equation; expressed in transfected cells; host or cells: Saccharomyces cerevisiae (intact cells)
T1 sequence (O35433 whole entry): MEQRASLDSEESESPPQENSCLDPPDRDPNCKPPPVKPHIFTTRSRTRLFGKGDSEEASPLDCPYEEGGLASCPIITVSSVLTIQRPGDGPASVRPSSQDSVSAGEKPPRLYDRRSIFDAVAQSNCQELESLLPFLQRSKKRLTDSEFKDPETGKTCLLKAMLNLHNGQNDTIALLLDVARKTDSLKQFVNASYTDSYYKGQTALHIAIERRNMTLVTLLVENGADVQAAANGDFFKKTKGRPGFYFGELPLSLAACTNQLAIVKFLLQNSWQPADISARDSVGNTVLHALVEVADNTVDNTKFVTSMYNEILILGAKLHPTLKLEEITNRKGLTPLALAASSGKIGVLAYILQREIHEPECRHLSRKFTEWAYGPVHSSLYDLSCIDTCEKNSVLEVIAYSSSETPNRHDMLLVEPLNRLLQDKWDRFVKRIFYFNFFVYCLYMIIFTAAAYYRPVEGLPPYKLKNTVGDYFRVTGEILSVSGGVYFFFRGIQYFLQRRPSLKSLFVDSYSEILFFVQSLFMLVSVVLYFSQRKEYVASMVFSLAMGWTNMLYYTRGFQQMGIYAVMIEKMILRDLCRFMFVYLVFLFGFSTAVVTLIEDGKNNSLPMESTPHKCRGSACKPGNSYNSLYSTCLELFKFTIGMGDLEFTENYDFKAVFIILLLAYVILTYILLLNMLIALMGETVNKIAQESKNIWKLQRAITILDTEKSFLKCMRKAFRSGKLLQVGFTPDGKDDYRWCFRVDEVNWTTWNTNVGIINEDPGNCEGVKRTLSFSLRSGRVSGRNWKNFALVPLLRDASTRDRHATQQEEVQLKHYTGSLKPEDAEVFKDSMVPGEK
Experimental: To evaluate whether these constructs were competent to bind vanilloids, we initially measured the binding of [^3H]-RTx ([Szallasi and Blumberg, 1999]; [Szallasi et al., 1999]) to intact yeast cells expressing each of the constructs.
S. cerevisiae cells overexpressing TRPV1 constructs to be used in ligand binding assays on intact cells (Figure 1E,F) were grown as for small scale expression trials. 24 hr after protein induction cells were spun down at 4000g, the supernatant was removed and the pellet resuspended in 1x PBS, normalizing OD600 to 75 for each sample, and aliquoted for storage at -80°C. ^3H-RTx binding assays on cells were performed at 37°C as previously described ([Feng et al., 2015]), but where non-specific binding of RTx was measured using cells expressing GFP alone. The binding of RTx to TRPV1 and TRPV2 in membranes (e.g. Figure 2A,B and 5C) was performed at 37°C unless otherwise stated using membranes prepared from large scale protein preparations of S. cerevisiae containing rat TRPV1 and TRPV2 with a 1D4 tag expressed using a constitutive promoter as in [Moiseenkova-Bell et al., 2008]. Data for binding of RTx to membranes was corrected for non-specific binding, determined using either excess non-radioactive ligand or heat inactivation of the protein, as previously described ([Feng et al., 2015]). The TRPV1-activating double-knot toxin (DkTx) was produced recombinantly, folded in vitro and purified as previously described ([Bae et al., 2012]). Yeast membranes were incubated with DkTx solution for 1 hr at 4°C with gentle agitation prior to undertaking RTx binding assays.

TRPV2 F472S/L507M = target: T2, TRPV2 F472S/L507M (Rattus norvegicus, UniProt Q9WUD2, F472S/L507M); test: Two-electrode voltage-clamp in Xenopus oocytes, TRPV2 F472S/L507M; assay type: cell-based; settings: 100 nM RTx
T2 construct: expressed in transfected cells; host or cells: Xenopus oocytes (cRNA injection)
T2 sequence (Q9WUD2 whole entry F472S/L507M): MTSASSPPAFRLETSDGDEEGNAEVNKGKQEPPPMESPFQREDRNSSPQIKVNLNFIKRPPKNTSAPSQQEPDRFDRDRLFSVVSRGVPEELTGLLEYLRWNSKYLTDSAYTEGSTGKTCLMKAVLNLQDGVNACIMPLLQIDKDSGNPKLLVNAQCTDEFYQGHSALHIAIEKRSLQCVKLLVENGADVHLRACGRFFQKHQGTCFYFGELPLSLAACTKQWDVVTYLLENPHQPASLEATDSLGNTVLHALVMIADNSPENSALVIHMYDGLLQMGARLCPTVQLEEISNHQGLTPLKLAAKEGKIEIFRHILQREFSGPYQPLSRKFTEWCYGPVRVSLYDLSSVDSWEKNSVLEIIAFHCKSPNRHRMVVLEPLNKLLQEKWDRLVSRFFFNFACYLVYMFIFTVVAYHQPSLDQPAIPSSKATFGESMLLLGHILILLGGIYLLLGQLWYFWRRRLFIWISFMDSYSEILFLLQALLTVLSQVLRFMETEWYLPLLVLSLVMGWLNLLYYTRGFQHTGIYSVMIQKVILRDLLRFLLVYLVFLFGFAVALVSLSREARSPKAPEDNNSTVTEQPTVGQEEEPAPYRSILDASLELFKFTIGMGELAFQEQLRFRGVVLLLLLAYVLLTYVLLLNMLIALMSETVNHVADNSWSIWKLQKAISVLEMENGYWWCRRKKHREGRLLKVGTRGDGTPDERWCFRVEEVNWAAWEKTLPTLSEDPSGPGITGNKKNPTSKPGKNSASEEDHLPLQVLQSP
Excerpt: To further investigate the putative vanilloid binding pocket in TRPV1, we inspected the cryo-EM structure of TRPV1, looking for residues that are located nearby to the putative RTx density (Figure 1B; regions/residues highlighted in yellow) and that differ between TRPV1 and TRPV2 channels (Figure 3—figure supplement 1; regions highlighted in magenta). […] To quantify the contribution of each of these residues to TRPV1 channel activation by RTx under our experimental conditions, we mutated each to the corresponding residue in TRPV2. We then expressed each construct in oocytes and used the two electrode voltage-clamp technique to study activation by RTx and by the non-specific TRPV channel activator 2-APB. We recorded time courses for channel activation by each agonist while stepping the membrane potential from −60 to +60 mV every 3 s from a holding potential of 0 mV using an external recording solution containing 100 mM KCl (internal K^+ concentration in a healthy oocyte is 100 mM) (Figure 3A, left). We also recorded current-voltage (I-V) relations by stepping over a wider range of voltages in the absence and presence of activators, or in the presence of ruthenium red (RR), a non-specific inhibitor of TRP channels (Figure 3A, right). […]

`C=C(C)[C@]12C[C@@H](C)[C@@]34O[C@](Cc5ccccc5)(O[C@@H]1[C@@H]3C=C(COC(=O)Cc1ccc(O)c(OC)c1)C[C@]1(O)C(=O)C(C)=C[C@@H]41)O2` [RTx, resiniferatoxin] was tested, and the “Hill slope (nH)” value ([1]; Figure 1E) was 0.78, the Kd ([1]; Figure 1E) was 7 nM and the “Hill slope (nH)” value ([1]; Figure 1F) was 0.82. For the same molecule, the Kd ([1]; Figure 1F) was 7.2 nM and the “channel activation by RTx” value (TRPV2 F472S/L507M) was “sensitive to RTx”.
